Data as given in patent US6878713B2, “Generation triple-targeting, chiral, broad-spectrum antimicrobial 7-substituted piperidino-quinolone carboxylic acid derivatives, their preparation, compositions and use as medicaments” (Wockhardt Limited, priority 2001, dated 2005).
Values after ≈ are worked out from the molar mass of the structure shown. Read-outs that look alike come from different tables or passages of the source.

Experiments:
[1] = system: V79 (Chinese Hamster Lung); test: Cytotoxicity test (Alamar blue), V79 cells, Table 23; assay type: cell-based; settings: 3 hrs drug exposure, further 96 hrs incubation
Experimental: Compounds were evaluated for their cytotoxic potential against two […] viz. […] Cells were grown for 3-4days in a culture flask using D-MEM (Dulbecco's Modified Eagle. […] Freshly grown cells were distributed in microtiter plates at a cell density of 10^5-10^6 cells/well and allowed to […] form monolayer by incubating the microtiter plate at […] for 24 hrs. […] Following 3 hrs. of drug exposure, cell were washed with D-MEM and incubated further for 96 hrs. Cytotoxic effects of drugs were monitored through daily microscopic observation and by ascertaining the metabolic status through redox indicator Alamar blue. Healthy actively metabolising cells bring about colour change of Alamar blue from blue to pink within an overnight incubation. Cytotoxic drugs inhibit this reaction resulting into blue coloured well. Minimum drug concentration inhibiting Alamar blue color change i.e. resulting into blue coloured wells for a given drug is considered cytotoxic concentration.

[2] = system: Multidrug-Resistant (MDR) Pneumococcal Infections; test: In-vivo antimicrobial test, systemic infection model (mouse septicemia), Table 22; parameters: species or system Swiss male and female mice; settings: oral dosing 1 hour and 5 hours post-infection, survival on day 7, strain resistant to β-lactams, macrolides and fluoroquinolones; for ED50: Streptococcus pneumoniae, po, read-out: ED50 p.o., MDR S. pneumoniae 718; for ED50 p.o., MDR S. pneumoniae 718: hydrochloride
Experimental: The in vivo efficacy was studied through mouse septicemia model of infection in Swiss male and female mice (4 weeks old, 20+2 g weight) using 6 animals in each group. Infective organisms were inoculated intraperitonially. Compound were administered by oral route 1 hour and 5 hours post-infection. […] Appropriate comparators were included in the study.

[3] = system: Fluoroquinolone-Resistant Strains; test: In-vitro antimicrobial test (MIC, two-fold serial agar dilution, NCCLS), Table 18; assay type: cell-based
Experimental: (§1) The test method was in accordance with the standard NCCLS protocol (Methods for Dilution Antimicrobial Susceptibility Tests for Bacteria that grow Aerobicially, Approved Standards, M7-A5, Fifth Edition, January 2000).
(§2) The antibacterial activities (minimum inhibitory concentration: MIC, […]) were determined by using the two-fold serial agar dilution method recommended by NCCLS. The media used for preculture and main culture were Tryptic Soya broth (Difco) and Mueller Hinton medium (Difco), respectively. The Mueller Hinton agar was supplemented with 5% sheep blood for streptococci. Overnight cultures were diluted with buffered saline (pH 7.2) to the final cell density of 5×10^6-10^7 CFU/ml, and each bacterial suspension was applied with a replicator (Denley's multipoint inoculator, UK) onto a series of Mueller-Hinton agar plates containing antibacterial agents at various concentrations. Final inoculum was approximately 10^4 CFU/spot. The plates were incubated for 18 hrs at 37° C. The MIC was defined as the lowest concentration of an antibacterial agent that inhibits the development of visible microbial growth on agar.

J 744 (mouse macrophage) = test: Cytotoxicity test (Alamar blue), J 744 cells, Table 23; assay type: cell-based; settings: 3 hrs drug exposure, further 96 hrs incubation
Experimental: Compounds were evaluated for their cytotoxic potential against two celllines viz. […] Cytotoxic drugs inhibit this reaction resulting into blue coloured well. Minimum drug concentration inhibiting Alamar blue color change i.e. resulting into blue coloured wells for a given drug is considered cytotoxic concentration.

MRSA 5027 = test: Resistance to resistance development (sequential passages through drug-containing media); assay type: cell-based; settings: Staphylococcus aureus
[4] = system: Clinical Isolate MRSA 5076 with Mutations in DNA Gyrase and Topoisomerase IV as well as bearing an Efflux Pump; test: microbe, parasite or virus in culture; assay type: cell-based; settings: for MIC: Staphylococcus aureus, ATCC 25293 / MRSA, read-out: MICs, S. aureus (sensitive) ATCC 25293
Experimental: as §1, §2

[5] = system: Trovafloxacin-Resistant and Vancomycin-Resistant Enterococci; test: In-vitro antimicrobial test (MIC, two-fold serial agar dilution, NCCLS), Table 19; assay type: cell-based
Source text: The comparative antimicrobial activity of representative compounds, of the invention and reference compounds against various sensitive and resistant microorganisms is given in Tables 17 to 20. The test method was in accordance with the standard NCCLS protocol (Methods for Dilution Antimicrobial Susceptibility Tests for Bacteria that grow Aerobicially, Approved Standards, M7-A5, Fifth Edition, January 2000).
as §2

[6] = system: Fluoroquinolone Sensitive Strains; test: In-vitro antimicrobial test (MIC, two-fold serial agar dilution, NCCLS), Table 17; assay type: cell-based
Experimental: as §1, §2

[7] = Staphylococcus aureus, MRSA, MRSA 032
[8] = Streptococcus pneumoniae, FQ^R S. pneumoniae 718
[9] = read-out: MIC against MRSA 5027, initially
[10] = read-out: MIC against MRSA 5027 after 10 passages in drug containing medium
[11] = Streptococcus mitis, Cipro^R S. mitis 938
[12] = Staphylococcus epidermidis, trovafloxacin-resistant methicillin-resistant S. epidermidis (MRSE) 110, 18 hrs at 37° C, read-out: MICs, Trova-Resist MRSE 110
[13] = vancomycin-resistant Enterococcus faecium (VRE) 336, 18 hrs at 37° C, read-out: MICs, VRE 336
[14] = Enterococcus faecalis, ATCC29212, E. faecalis ATCC 29212
[15] = Escherichia coli, ATCC25922, E. coli ATCC 25922
[16] = Pseudomonas aeruginosa, P. aeruginosa 27853
[17] = S. sanguis ATCC 10556 (Viridans Streptococci group)
[18] = Staphylococcus aureus, ATCC 25923 / MSSA, MSSA ATCC 25923
[19] = Streptococcus pneumoniae, ATCC49619, S. pneumoniae ATCC 49619
[20] = Cipro^R S. sanguis 941, hydrochloride

| SMILES | Cytotoxic concentration, V 79 CHL [1] [µg/mL] | ED50 [2] [mg/kg] | MIC [3, 7] [µg/mL] | MIC [3, 8] [µg/mL] | Cytotoxic concentration, J 744 Macrophage (J 744 (mouse macrophage)) [µg/mL] | MIC ([3]; Cipro^R S. sanguis 941) [µg/mL] | MIC [3, 11] [µg/mL] | MIC [6, 14] [µg/mL] | MIC [6, 15] [µg/mL] | MIC [6, 16] [µg/mL] | MIC [6, 17] [µg/mL] | MIC [6, 18] [µg/mL] | MIC [6, 19] [µg/mL] | other results |
| --- | --- | --- | --- | --- | --- | --- | --- | --- | --- | --- | --- | --- | --- | --- |
| COc1c(N2CCC(N)C(C)(C)C2)c(F)cc2c(=O)c(C(=O)O)cn(C3CC3)c12.Cl (racemic) [Compound 18, (±)-1-Cyclopropyl-6-fluoro-1,4-dihydro-8-methoxy-7-(4-amino-3,3-dimethyl-1-piperidinyl)-4-oxo-quinoline-3-carboxylic acid hydrochloride] | >1000 | 30 | 0.8 | 0.8 | >1000 |  |  |  |  |  |  |  |  | MIC (MRSA 5027; [9]): 0.4 µg/mL; MIC (MRSA 5027; [10]): 0.4 µg/mL |
| Cc1c(N2CCC(O)C(C)(C)C2)c(F)cc2c(=O)c(C(=O)O)cn(C3CC3)c12 (racemic) [Compound 95, (±)-1-Cyclopropyl-6-fluoro-8-methyl-7-(4-hydroxy-3,3-dimethyl-1-piperidinyl)-1,4-dihydro-4-oxo-quinoline-3-carboxylic acid] | >1000 |  | 0.2 (≈ 0.515 µM) | 0.8 (≈ 2.06 µM) | >1000 | 0.4 (≈ 1.03 µM) | 0.4 (≈ 1.03 µM) | 0.05 (≈ 0.129 µM) | 0.2 (≈ 0.515 µM) | 3.12 (≈ 8.03 µM) | 0.025 (≈ 0.0644 µM) | 0.003 (≈ 0.00772 µM) | 0.025 (≈ 0.0644 µM) | MICs, MRSA 5076 + efflux inhibitor reserpine ([4]; MRSA 5076 with efflux inhibitor reserpine): 0.2 µg/mL; MIC [4]: 0.003 µg/mL (≈ 0.00772 µM); MIC [5, 12]: 0.4 µg/mL (≈ 1.03 µM); MIC [5, 13]: 3.12 µg/mL (≈ 8.03 µM) |
| Cc1c(N2CCC(N)C(C)(C)C2)c(F)cc2c(=O)c(C(=O)O)cn(C3CC3)c12.Cl (racemic) [Compound 102, (±)-1-Cyclopropyl-6-fluoro-1,4-dihydro-8-methyl-7-(4-amino-3,3-dimethyl-1-piperidinyl)-4-oxo-quinoline-3-carboxylic acid hydrochloride] | 750 | 30 | 0.8 | 0.8 | 1000 | 1.56 | 1.56 | 0.05 | 0.025 | 3.12 | 0.025 | 0.025 | 0.025 |  |
| Cc1c(N2CC[C@H](O)[C@H](C)C2)c(F)cc2c(=O)c(C(=O)O)cn(C3CC3)c12 (relative stereo) [Compound 93, cis-1-Cyclopropyl-6-fluoro-8-methyl-7-(4-hydroxy-3-methyl-1-piperidinyl)-1,4-dihydro-4-oxo-quinoline-3-carboxylic acid] | >1000 |  | 0.2 (≈ 0.534 µM) | 0.8 (≈ 2.14 µM) | >1000 | 0.4 (≈ 1.07 µM) | 0.4 (≈ 1.07 µM) | 0.05 (≈ 0.134 µM) | 0.2 (≈ 0.534 µM) | 3.12 (≈ 8.33 µM) | 0.05 (≈ 0.134 µM) | 0.003 (≈ 0.00801 µM) | 0.025 (≈ 0.0668 µM) | MIC [5, 12]: 0.4 µg/mL (≈ 1.07 µM); MIC [5, 13]: 3.12 µg/mL (≈ 8.33 µM); melting point: 206 to 210 °C |
| Cc1c(N2CC[C@@H](O)[C@H](C)C2)c(F)cc2c(=O)c(C(=O)O)cn(C3CC3)c12 (relative stereo) [Compound 94, trans-1-Cyclopropyl-6-fluoro-8-methyl-7-(4-hydroxy-3-methyl-1-piperidinyl)-1,4-dihydro-4-oxo-quinoline-3-carboxylic acid] | >1000 |  | 0.2 (≈ 0.534 µM) | 0.8 (≈ 2.14 µM) | >1000 | 0.4 (≈ 1.07 µM) | 0.4 (≈ 1.07 µM) | 0.1 (≈ 0.267 µM) | 0.2 (≈ 0.534 µM) | 3.12 (≈ 8.33 µM) | 0.025 (≈ 0.0668 µM) | 0.003 (≈ 0.00801 µM) | 0.025 (≈ 0.0668 µM) | MIC [5, 12]: 0.4 µg/mL (≈ 1.07 µM); MIC [5, 13]: 3.12 µg/mL (≈ 8.33 µM) |
| Cc1c(N2CC[C@H](N)[C@H](C)C2)c(F)cc2c(=O)c(C(=O)O)cn(C3CC3)c12.Cl (relative stereo) [Compound 100, cis-1-Cyclopropyl-6-fluoro-1,4-dihydro-8-methyl-7-(4-amino-3-methyl-1-piperidinyl)-4-oxo-quinoline-3-carboxylic acid hydrochloride] | 125 | 30 | 1.56 | 1.56 | 1000 | 3.12 | 1.56 | 0.1 | 0.0012 | 3.12 | 0.025 | 0.025 | 0.05 | melting point: 255 to 260 °C |
| COc1c(N2CCC(N)C(C)(C)C2)c(F)cc2c(=O)c(C(=O)O)cn(C3CC3)c12.Cl (single isomer, unassigned; (+)) [Compound 22, (+)-1-Cyclopropyl-6-fluoro-1,4-dihydro-8-methoxy-7-(4-amino-3,3-dimethyl-1-piperidinyl)-4-oxo-quinoline-3-carboxylic acid hydrochloride] |  |  |  |  | >1000 |  | 0.8 |  |  |  |  |  |  | Cytotoxic concentration, V 79 CHL ([1]; hydrochloride): 1000 µg/mL; ED50 p.o., MDR S. pneumoniae 718 [2]: 20 mg/kg; MICs [3, 20]: 0.2 µg/mL; MICs ([3]; MRSA 032): 0.8 µg/mL |
| COc1c(N2CCC(N)C(C)(C)C2)c(F)cc2c(=O)c(C(=O)O)cn(C3CC3)c12.Cl (single isomer, unassigned; (-)) [Compound 26, (−)-1-Cyclopropyl-6-fluoro-1,4-dihydro-8-methoxy-7-(4-amino-3,3-dimethyl-1-piperidinyl)-4-oxo-quinoline-3-carboxylic acid hydrochloride] |  |  | 0.8 | 0.8 | >1000 |  |  |  |  |  |  |  |  | Cytotoxic concentration, V 79 CHL ([1]; hydrochloride): >1000 µg/mL; ED50 p.o., MDR S. pneumoniae 718 [2]: 50 mg/kg |
| Cc1c(N2CCC(N)C(C)(C)C2)c(F)cc2c(=O)c(C(=O)O)cn(C3CC3)c12.Cl (single isomer, unassigned; (-)) [Compound 110, (−)-1-Cyclopropyl-6-fluoro-1,4-dihydro-8-methyl-7-(4-amino-3,3-dimethyl-1-piperidinyl)-4-oxo-quinoline-3-carboxylic acid hydrochloride] |  | 20 |  |  |  |  |  |  |  |  |  |  |  | MIC [4]: 0.05 µg/mL; Cytotoxic concentration, V 79 CHL ([1]; hydrochloride): 250 µg/mL; MICs [3, 20]: 1.56 µg/mL; Cytotoxic concentration, J 744 Macrophage (J 744 (mouse macrophage); hydrochloride): 1000 µg/mL; MICs ([6]; E. coli ATCC 25922, hydrochloride): 0.025 µg/mL; MICs ([6]; E. faecalis ATCC 29212, hydrochloride): 0.05 µg/mL; MICs ([6]; MSSA ATCC 25923): 0.025 µg/mL; MICs ([6]; S. pneumoniae ATCC 49619, hydrochloride): 0.025 µg/mL; melting point: 300 °C |
| COc1c(N2C[C@@H]3CCCN[C@@H]3C2)c(F)cc2c(=O)c(C(=O)O)cn(C3CC3)c12 [Moxifloxacin, reference compound] |  | > 100 |  |  |  |  |  | 0.2 (≈ 0.498 µM) | 0.05 (≈ 0.125 µM) |  | 0.4 (≈ 0.996 µM) | 0.05 (≈ 0.125 µM) | 0.2 (≈ 0.498 µM) | MIC (MRSA 5027; [9]): 0.4 µg/mL (≈ 0.996 µM) |
| N[C@@H]1[C@H]2CN(c3nc4c(cc3F)c(=O)c(C(=O)O)cn4-c3ccc(F)cc3F)C[C@@H]12 [Trovafloxacin] |  |  |  |  | 500 |  |  |  |  |  |  |  |  | MIC (MRSA 5027; [9]): 0.4 µg/mL (≈ 0.961 µM); MIC (MRSA 5027; [10]): 50 µg/mL (≈ 120 µM) |
